Experimental data published in patent publication US20100247579A1, “THERAPEUTIC AGENT FOR CANCER” (priority 2007, published 2010).

Key:
Format in all cases: in vivo, C57BL/6 mice
hB16F10 [1] = experiment: Antitumor activity (tumor size) after CPA and T cell transfer, syngeneic tumor model C57BL/6-hB16F10; conditions: day 11 after tumor inoculation; CPA 100 mg/kg i.p. day 4
Procedure: On the next day, individual mouse T cells prepared in item (2) of Example 11 was prepared with an RPMI 1640 medium to a density of 3.75×10^8 cells/mL, and the naive T-like cells and the effector T-like cells in 0.2 mL each were administered via the tail veins to each individual of group C and group D, respectively. In addition, the RPMI 1640 medium was administered to each individual of group A and group B in 0.2 mL each via the tail veins.
However, the tumor size was determined on days 11 and 13 after the tumor inoculation.

CD3e^+ T cells in blood [2] = experiment: T cell count in blood after CPA and T cell transfer, syngeneic tumor model C57BL/6-hB16F10; conditions: day 6 after cell administration; group A defined as 100%; CPA 100 mg/kg i.p. day 4
Procedure: Evaluation of the lymphocyte count was effected by measuring the leukocyte count and the T cell count contained in the blood sample collected from the mouse tail vein. A volume of 22 μL of the blood was collected into a 0.5 mL tube containing 3 μL of heparin sodium (manufactured by Mitsubishi Wellpharma Inc.) per one mouse. An aliquote of 15 μL was taken from the blood sample, added to a mixed solution of 14 μL of Flow-Count (manufactured by Beckman Coulter Inc.) and 0.5 μL of hamster anti-mouse CD3e FITC (manufactured by eBioscience Inc.), and the mixture was treated for 15 minutes. Thereafter, the erythrocytes were hemolysed with a low isotonic solution, and subjected to flow cytometry to calculate the rate of T cells and the recovery rate of T cells, with the CD3e^+ cells being as the T cells. […] […] Moreover, the recovery rate of the T cells was determined to be a ratio of the number of the T cells on day 4 after the cell administration relative to the number of the T cells immediately before the cell administration.
In a similar manner to item (5) of Example 1, expansion of mouse T cell population was carried out.
Using the mouse T cells which had been expanded in item (1) of Example 11, separation of the naive T-like cells and the effector T-like cells was performed similarly to item (2) of Example 10. […]

CD3e^+ T cells in blood [3] = experiment: T cell count in blood after MMC and T cell transfer, syngeneic tumor model C57BL/6-hB16F10
Procedure: In a similar manner to item (5) of Example 1, expansion of mouse T cells was carried out, however, the human CH-296 was not used, and the cells on day 6 of culture were collected. The cells were subjected to each experiment.
The cells obtained in item (1) of Example 10 were collected to take a required amount, and centrifuged at 500×g for 5 minutes at room temperature to remove the supernatant. Thereafter, the cells were suspended in DPBS containing 0.5% BSA and 2 mM disodium ethylenediaminetetraacetate (hereinafter referred to as 0.5% BSA/DPBS) to a density of 1.11×10^8 cells/mL. CD62L ([…]) microbeads (mouse) (manufactured by MACS) were added to the cell solution in 10 μL per cell count of 1×10^7 cells, and incubated for 15 minutes while stirring sometimes in a dark place at 4° C. Then, to the cell solution was added 1 mL of 0.5% BSA/DPBS per cell count of 1×10^7 cells, and the mixture was centrifuged at 500×g for 5 minutes at room temperature to remove the supernatant. After that, 0.5 mL of 0.5% BSA/DPBS per cell count of 1×10^8 cells was added thereto, suspended sufficiently, and allowed to stand on ice to afford a CD62L microbeads target cell solution. An LS column (manufactured by MACS, hereinafter referred to as a separation column) was provided to a VarioMACS (trademark) separator (manufactured by MACS, hereinafter referred to as a separation apparatus) and rinsed with 3 mL of 0.5% BSA/DPBS. The CD62L microbeads-labeled cell solution was added to the column for elution and further rinsed with 9 mL of 0.5% BSA/DPBS to collect an eluate, thereby obtaining CD62L^− cells as effector T-like cells. The column was removed from the separation apparatus, and CD62L^+ cells were collected as naive T-like cells by extrusion with a plunger attached to the separation apparatus after addition of 5 mL of a buffer.
Hair removal of about 9 cm^2 in the right inguina of 7-week old female C57BL/6 mice was effected under anesthesia, and 0.1 mL of hB16F10 suspended in an RPMI 1640 medium to a density of 4×10^6 cells/mL was subcutaneously administered to the mice. […]

hB16F10 [4] = experiment: Antitumor activity (tumor size) after MMC and T cell transfer, syngeneic tumor model C57BL/6-hB16F10; conditions: day 14 after tumor inoculation; product of major and minor diameter
Procedure: Hair removal of about 9 cm^2 in the right inguina of 7-week old female C57BL/6 mice was effected under anesthesia, and 0.1 mL of hB16F10 suspended in an RPMI 1640 medium to a density of 4×10^6 cells/mL was subcutaneously administered to the mice. Thereafter, group settings were carried out as follows. Group A was set to an untreated group, group B was set to an MMC alone administration group, group C was set to a combinatorial MMC and naive T-like cell administration group, and group D was set to a combinatorial MMC and effector T-like cell administration group. On days 3 and 4 after tumor inoculation, 0.2 mL of a saline (manufactured by Otsuka Pharmaceutical Co., Ltd.) was intraperitoneally administered to group A and the MMC at a dose of 2 mg/kg was intraperitoneally administered to other groups. On day 6 after the tumor inoculation, individual mouse T cells prepared in item (2) of Example 10 were prepared with an RPMI 1640 medium to a density of 5×10^8 cells/mL. The naive T-like cells and the effector T-like cells in 0.2 mL each were respectively administered to each individual of group C and group D via the tail veins. […]
In order to assay the antitumor activity in the evaluation system performed in item (3) of Example 10, a tumor size in each individual on day 14 after the tumor inoculation was determined with an electronic caliper. […]

Structure (SMILES)	Tumor Size (mm^2) On day 11 (hB16F10 [1]) [mm^2]	Rate of T cells (%) (CD3e^+ T cells in blood [2])	Rate of T Cells On Day 4 after Cell Administration (CD3e^+ T cells in blood [3]; group A (untreated) defined as 100%, MMC 2 mg/kg i.p. days 3 and 4, cells via tail vein day 6) [%]	Rate of T Cells Immediately before Cell Administration (CD3e^+ T cells in blood [3]; group A (untreated) defined as 100%, MMC 2 mg/kg i.p. on days 3 and 4 after tumor inoculation) [%]	Recovery Rate of T Cells (CD3e^+ T cells in blood [3]; ratio of T cell number on day 4 after cell administration to number immediately before)	Tumor Size (mm^2) (hB16F10 [4])
O=P1(N(CCCl)CCCl)NCCCO1 (stereo not drawn) [CPA, cyclophosamide]	32.6	52.2				
CO[C@@]12[C@H](COC(N)=O)C3=C(C(=O)C(C)=C(N)C3=O)N1C[C@@H]1N[C@@H]12 [MMC, mitomycin C]			118.2	84.1	1.4	82.5
